According to US11254663B2 (BRISTOL-MYERS SQUIBB COMPANY, priority 2019, dated 2022):
pEC50: −log10 of the molar value.

These compounds were tested against FXR (Homo sapiens (Human), UniProt Q96RI1) (assay: transient human FXR/Gal4-luciferase reporter assay). Conditions: not given.
Type: cell-based
Protocol: A Gal4-hFXR fusion construct reporter system was used as the primary assay to characterize compound activity. A construct including 5 copies of the Gal4 promoter response element upstream of a firefly luciferase reporter cDNA was stably expressed in HEK293 cells. This reporter cell line was maintained in Dulbecco's Modified Eagle's medium (DMEM; Gibco) supplemented with 1% penicillin-streptomycin (P/S) solution, 500 μg/mL Zeocin and 10% charcoal/dextran-treated fetal bovine serum (cs-FBS) at 37° C. in a humidified 5% CO2 atmosphere. Another plasmid was constructed in which the human cytomegalovirus promoter in the pcDNA3.1 vector directs the expression of the cDNA encoding a fusion protein comprised of the DNA binding domain from the Gal4 transcription factor fused to the ligand binding domain from human FXR.
The day prior to transfection, the reporter cells in culture are detached from the plate with trypsin and plated into a T75 flask at a sufficient density to achieve approximately 90% confluence the next morning. The transfection reagents are prepared by separately diluting 25 μg of the pcDNA3.1-Gal4-FXR plasmid into 1.87 mL of Opti-MEM (Thermo-Fisher), and 40 μL of Lipofectamine 2000 (Thermo-Fisher) into 1.87 mL of Opti-MEM, and then adding the diluted DNA solution into the diluted Lipofectamine 2000 solution and incubating at room temperature for 15-20 minutes. The mixture is further diluted with 10 mL of a solution comprised of DMEM, 10% cs-FBS, and 1% P/S immediately prior to transferring to the cells. The maintenance culture media is aspirated from the cells and the final transfection mixture is added before the cells are incubated overnight at 37° C. in a humidified 5% CO2 atmosphere. This protocol can be scaled up, and the transiently transfected cells can be cryopreserved in an assay-ready format.
For compound testing, 100 nL of the compounds (serial dilutions in DMSO) are dispensed with an Echo acoustic dispenser (Labcyte) into the wells of a Corning/Costar clear bottom 384-well white plate. The transfected cells are harvested, counted, and diluted such that 10-25,000 cells in 25 μL are plated into each well of the 384-well compound assay plate. The compound-treated cells are incubated overnight at 37° C. in a humidified 5% CO2 atmosphere. The next morning 25 μL of Steady-Glo (Promega) are added to each well of the plate, the mixture is incubated for 15 min. with shaking, and luminescence is measured on an Envision (Perkin Elmer) plate reader.

FXR, sequence (Q96RI1 262-486): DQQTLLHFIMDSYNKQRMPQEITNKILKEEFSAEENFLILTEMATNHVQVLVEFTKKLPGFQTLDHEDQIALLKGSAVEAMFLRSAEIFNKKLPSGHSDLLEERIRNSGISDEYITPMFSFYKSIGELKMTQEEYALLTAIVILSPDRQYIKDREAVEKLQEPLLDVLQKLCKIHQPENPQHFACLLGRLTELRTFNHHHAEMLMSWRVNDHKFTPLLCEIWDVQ

In order of falling pEC50:
1. CCOc1ncc(-c2cccc(N(CC34CCC(c5noc(C(C)(F)F)n5)(CC3)CC4)C(=O)C34CC(F)(C3)C4)c2)cn1 [Example 529, N-((4-(5-(1,1-difluoroethyl)-1,2,4-oxadiazol-3-yl)bicyclo[2.2.2]octan-1-yl)methyl)-N-(3-(2-ethoxypyrimidin-5-yl)phenyl)-3-fluorobicyclo[1.1.1]pentane-1-carboxamide]  6.97
2. CCOc1ccc(-c2cncc(N(CC34CCC(c5noc(C(C)(C)C)n5)(CC3)CC4)C(=O)C34CC(F)(C3)C4)c2)cc1 [Example 482, N-((4-(5-(tert-butyl)-1,2,4-oxadiazol-3-yl)bicyclo[2.2.2]octan-1-yl)methyl)-N-(5-(4-ethoxyphenyl)pyridin-3-yl)-3-fluorobicyclo[1.1.1]pentane-1-carboxamide]  6.49
3. CCOc1ccc(-c2cncc(N(CC34CCC(c5nc(C(C)(C)C)no5)(CC3)CC4)C(=O)C34CC(F)(C3)C4)c2)cn1 [Example 477, N-((4-(3-(tert-butyl)-1,2,4-oxadiazol-5-yl)bicyclo[2.2.2]octan-1-yl)methyl)-N-(6′-ethoxy-[3,3′-bipyridin]-5-yl)-3-fluorobicyclo[1.1.1]pentane-1-carboxamide]  6.31
4. CC(C)(O)c1ccc(-c2cccc(N(CC34CCC(c5noc(C(C)(C)F)n5)(CC3)CC4)C(=O)NCCN3CCOCC3)c2)cc1 [Example 649, 1-((4-(5-(2-fluoropropan-2-yl)-1,2,4-oxadiazol-3-yl)bicyclo[2.2.2]octan-1-yl)methyl)-1-(4′-(2-hydroxypropan-2-yl)-[1,1′-biphenyl]-3-yl)-3-(2-morpholinoethyl)urea]  6.22

Same assay, conditions: Gal4-hFXR fusion construct, HEK293 reporter cells; response relative to 8 μM GW-4064

In order of rising pEC50:
1. CC(C)(F)c1nc(C23CCC(CN(C(=O)C45CC(F)(C4)C5)c4cccc(-c5cn[nH]c(=O)c5)c4)(CC2)CC3)no1 [Example 594, 3-fluoro-N-((4-(5-(2-fluoropropan-2-yl)-1,2,4-oxadiazol-3-yl)bicyclo[2.2.2]octan-1-yl)methyl)-N-(3-(6-oxo-1,6-dihydropyridazin-4-yl)phenyl)bicyclo[1.1.1]pentane-1-carboxamide]  5.74
2. CC(C)Oc1ccc(-c2cccc(N(CC34CCC(c5cc(C(C)(F)F)on5)(CC3)CC4)C(=O)OC(C)(C)C(F)(F)F)c2)cc1 [Example 656, 1,1,1-trifluoro-2-methylpropan-2-yl ((4-(5-(1,1-difluoroethyl)isoxazol-3-yl)bicyclo[2.2.2]octan-1-yl)methyl)(4′-isopropoxy-[1,1′-biphenyl]-3-yl)carbamate]  5.97
3. CC(C)(C)c1nc(C23CCC(CN(c4cccc(-c5ccc(NS(C)(=O)=O)cc5)c4)C(=O)[C@H]4C[C@@](C)(O)C4)(CC2)CC3)no1 [Example 512, (cis)-N-((4-(5-(tert-butyl)-1,2,4-oxadiazol-3-yl)bicyclo[2.2.2]octan-1-yl)methyl)-3-hydroxy-3-methyl-N-(4′-(methylsulfonamido)-[1,1′-biphenyl]-3-yl)cyclobutane-1-carboxamide]  6.04
4. CC(C)c1noc(C23CCC(CN(C(=O)C45CC(F)(C4)C5)c4cccc(-c5ccc(C(F)(F)F)nc5)c4)(CC2)CC3)n1 [Example 388, 3-fluoro-N-((4-(3-isopropyl-1,2,4-oxadiazol-5-yl)bicyclo[2.2.2]octan-1-yl)methyl)-N-(3-(6-(trifluoromethyl)pyridin-3-yl)phenyl)bicyclo[1.1.1]pentane-1-carboxamide]  6.04
5. COc1ccc(-c2cccc(N(CC34CCC(c5cnc(C(F)(F)F)nc5)(CC3)OC4)C(=O)C34CC(F)(C3)C4)c2)cc1 [Example 420, 3-fluoro-N-(4′-methoxy-[1,1′-biphenyl]-3-yl)-N-((1-(2-(trifluoromethyl)pyrimidin-5-yl)-2-oxabicyclo[2.2.2]octan-4-yl)methyl)bicyclo[1.1.1]pentane-1-carboxamide]  6.10
6. O=C(N(CC12CCC(c3nc(C4CC4)no3)(CC1)CC2)c1cccc(-c2cc(Br)cn3ncnc23)c1)C12CC(F)(C1)C2 [Example 326, N-(3-(6-bromo-[1,2,4]triazolo[1,5-a]pyridin-8-yl)phenyl)-N-((4-(3-cyclopropyl-1,2,4-oxadiazol-5-yl)bicyclo[2.2.2]octan-1-yl)methyl)-3-fluorobicyclo[1.1.1]pentane-1-carboxamide]  6.11
7. CCOc1ccc(-c2cncc(N(CC34CCC(c5nc(C6CC6)no5)(CC3)CC4)C(=O)C34CC(F)(C3)C4)c2)cc1 [Example 424, N-((4-(3-cyclopropyl-1,2,4-oxadiazol-5-yl)bicyclo[2.2.2]octan-1-yl)methyl)-N-(5-(4-ethoxyphenyl)pyridin-3-yl)-3-fluorobicyclo[1.1.1]pentane-1-carboxamide]  6.32
8. O=C(NC12CCC(CN(C(=O)C3CC(O)(C(F)(F)F)C3)c3cccc(-c4ccc(OC(F)F)cc4)c3)(CC1)CC2)c1ccc(F)cc1 (stereo not drawn) [Example 637, N-(4-(((cis)-N-(4′-(difluoromethoxy)-[1,1′-biphenyl]-3-yl)-3-hydroxy-3-(trifluoromethyl)cyclobutane-1-carboxamido)methyl)bicyclo[2.2.2]octan-1-yl)-4-fluorobenzamide]  6.42
9. O=C(N(CC12CCC(c3nc(C4CC4)no3)(CC1)CC2)c1cccc(-c2ccc(OC(F)(F)F)cc2)c1)C12CC(F)(C1)C2 [Example 251, N-((4-(3-cyclopropyl-1,2,4-oxadiazol-5-yl)bicyclo[2.2.2]octan-1-yl)methyl)-3-fluoro-N-(4′-(trifluoromethoxy)-[1,1′-biphenyl]-3-yl)bicyclo[1.1.1]pentane-1-carboxamide]  6.56
10. O=C(N(CC12CCC(c3noc(C(F)(F)F)n3)(CC1)CC2)c1cccc(C2CC2)c1)C12CC(F)(C1)C2 [Example 572, N-(3-cyclopropylphenyl)-3-fluoro-N-((4-(5-(trifluoromethyl)-1,2,4-oxadiazol-3-yl)bicyclo[2.2.2]octan-1-yl)methyl)bicyclo[1.1.1]pentane-1-carboxamide]  6.84
11. CC(C)(C)c1nc(C23CCC(CN(C(=O)C45CC(F)(C4)C5)c4cccc(-c5ccc6c(c5)OC(F)(F)O6)c4)(CC2)CC3)no1 [Example 457, N-((4-(5-(tert-butyl)-1,2,4-oxadiazol-3-yl)bicyclo[2.2.2]octan-1-yl)methyl)-N-(3-(2,2-difluorobenzo[d][1,3]dioxol-5-yl)phenyl)-3-fluorobicyclo[1.1.1]pentane-1-carboxamide]  6.84
12. Cn1nc(C2CC2)cc1C12CCC(CN(C(=O)C34CC(F)(C3)C4)c3cccc(-c4ccc(NS(C)(=O)=O)cc4)c3)(CC1)CC2 [Example 412, N-((4-(3-cyclopropyl-1-methyl-1H-pyrazol-5-yl)bicyclo[2.2.2]octan-1-yl)methyl)-3-fluoro-N-(4′-(methylsulfonamido)-[1,1′-biphenyl]-3-yl)bicyclo[1.1.1]pentane-1-carboxamide]  6.98
13. Cc1nc2ccc(-c3cccc(N(CC45CCC(c6nc(C(C)C)no6)(CC4)CC5)C(=O)C45CC(F)(C4)C5)c3)cc2s1 [Example 378, 3-fluoro-N-((4-(3-isopropyl-1,2,4-oxadiazol-5-yl)bicyclo[2.2.2]octan-1-yl)methyl)-N-(3-(2-methylbenzo[d]thiazol-6-yl)phenyl)bicyclo[1.1.1]pentane-1-carboxamide]  7.28
14. CC(C)(O)c1ccc(-c2cccc(N(CC34CCC(c5nc(C6CC6)no5)(CC3)CC4)C(=O)OC(C)(C)C(F)(F)F)c2)cc1 [Example 623, 1,1,1-trifluoro-2-methylpropan-2-yl((4-(3-cyclopropyl-1,2,4-oxadiazol-5-yl)bicyclo[2.2.2]octan-1-yl)methyl)(4′-(2-hydroxypropan-2-yl)-[1,1′-biphenyl]-3-yl)carbamate]  7.30
15. Cc1nc2ccc(-c3cccc(N(CC45CCC(c6noc(C(C)C)n6)(CC4)CC5)C(=O)C45CC(F)(C4)C5)c3)cc2s1 [Example 433, 3-fluoro-N-((4-(5-isopropyl-1,2,4-oxadiazol-3-yl)bicyclo[2.2.2]octan-1-yl)methyl)-N-(3-(2-methylbenzo[d]thiazol-6-yl)phenyl)bicyclo[1.1.1]pentane-1-carboxamide]  7.43
16. CC(C)Oc1ccc(-c2cccc(N(CC34CCC(c5noc(C(C)(C)F)n5)(CC3)CC4)C(=O)OC(C)(C)C(F)(F)F)c2)cc1 [Example 584, 1,1,1-trifluoro-2-methylpropan-2-yl ((4-(5-(2-fluoropropan-2-yl)-1,2,4-oxadiazol-3-yl)bicyclo[2.2.2]octan-1-yl)methyl)(4′-isopropoxy-[1,1′-biphenyl]-3-yl)carbamate]  7.51
